The compounds below were run against Bek (Homo sapiens, UniProt P21802) (assay: Inhibitory activity against Bek-autophosphorylation using ELISA method in OCUM-2MD3 cells). Conditions: 1 hr with compound, read-out: IC50 (concentration necessary for inhibiting 50% of Bek-phosphorylation).
Type: cell-based
Outline: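 OCUM-2MD3 human scirrhous gastric cancer cells in 0.1% FCS were exposed to compound for 1 hr at 37° C, then lysed. Phospho-tyrosine proteins were captured with anti-phosphotyrosine antibody, probed with anti-Bek antibody and peroxidase read-out (A450). Positive control (1000 nM) set 0%, untreated 100%; IC50 from multi-level dilutions.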

Sequence of Bek (P21802 431-767 limits assumed): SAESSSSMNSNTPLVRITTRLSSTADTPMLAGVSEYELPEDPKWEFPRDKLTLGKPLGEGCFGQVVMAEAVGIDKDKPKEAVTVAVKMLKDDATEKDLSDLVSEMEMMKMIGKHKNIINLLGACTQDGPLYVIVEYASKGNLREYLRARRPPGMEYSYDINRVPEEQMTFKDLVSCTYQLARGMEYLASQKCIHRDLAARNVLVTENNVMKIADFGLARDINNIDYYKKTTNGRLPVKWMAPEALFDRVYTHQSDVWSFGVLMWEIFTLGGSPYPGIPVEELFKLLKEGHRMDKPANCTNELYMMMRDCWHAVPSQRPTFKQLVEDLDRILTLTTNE

IC50	Compound
46.6 nM	COc1cc2c(Oc3ccc(Nc4ccc(C(C)(C)C)cc4)cc3)ccnc2cc1OCC(O)CN1CCC(N2CCCC2)CC1 (stereo not shown) [Compound 259, 1-{4-[4-(4-Tert-butyl-phenylamino)-phenoxy]-6-methoxy-quinolin-7-yloxy}-3-(4-pyrrolidin-1-yl-piperidin-1-yl)-propan-2-ol]
26.7 nM	COc1cc2c(Oc3ccc(NC(=O)NCCC(C)(C)C)cc3)ccnc2cc1OCC(O)CN1CCC(Cc2ccccc2)CC1 (stereo not shown) [Compound 260, 1-(4-{7-[3-(4-Benzyl-piperidin-1-yl)-2-hydroxy-propoxy]-6-methoxy-quinolin-4-yloxy}-phenyl)-3-(3,3-dimethyl-butyl)-urea]
< 10 nM	COc1cc2c(Oc3ccc(NC(=O)NCCC(C)(C)C)cc3)ccnc2cc1OCC(O)CN1CCC(N2CCCCC2)CC1 (stereo not shown) [Compound 261, 1-{4-[7-(3-[1,4′]Bipiperidineyl-1′-yl-2-hydroxy-propoxy)-6-methoxy-quinolin-4-yloxy]-phenyl}-3-(3,3-dimethyl-butyl)-urea]
< 10 nM	COc1cc2c(Oc3ccc(NC(=O)NCCC(C)(C)C)cc3)ccnc2cc1OCC(O)CN1CCC(N2CCCC2)CC1 (stereo not shown) [Compound 262, 1-(3,3-Dimethyl-butyl)-3-(4-{7-[2-hydroxy-3-(4-pyrrolidin-1-yl-piperidin-1-yl)-propoxy]-6-methoxy-quinolin-4-yloxy}-phenyl)-urea]
< 10 nM	COc1cc2c(Oc3ccc(NC(=O)NCCC(C)(C)C)cc3)ccnc2cc1OCCCN1CCC[C@H]1CO [Compound 263, 1-(3,3-Dimethyl-butyl)-3-(4-{7-[3-(2-hydroxymethyl-pyrrolidin-1-yl)-propoxy]-6-methoxy-quinolin-4-yloxy}-phenyl)-urea]
< 10 nM	COc1cc2c(Oc3ccc(NC(=O)NCCC(C)(C)C)cc3)ccnc2cc1OCCCN1CCC(CO)CC1 [Compound 265, 1-(3,3-Dimethyl-butyl)-3-(4-{7-[3-(4-hydroxymethyl-piperidin-1-yl)-propoxy]-6-methoxy-quinolin-4-yloxy}-phenyl)-urea]
11 nM	COc1cc2c(Oc3ccc(NC(=O)NCCC(C)(C)C)c(Cl)c3)ccnc2cc1OCCCN1CCC(CO)CC1 [Compound 266, 1-(2-Chloro-4-{7-[3-(4-hydroxymethyl-piperidin-1-yl)-propoxy]-6-methoxy-quinolin-4-yloxy}-phenyl)-3-(3,3-dimethyl-butyl)-urea]
26.7 nM	COc1cc2c(Oc3ccc(NC(=O)NCCC(C)(C)C)c(Cl)c3)ccnc2cc1OCCCN1CCC(CCO)CC1 [Compound 267, 1-[2-Chloro-4-(7-{3-[4-(2-hydroxy-ethyl)-piperidin-1-yl]-propoxy}-6-methoxy-quinolin-4-yloxy)-phenyl]-3-(3,3-dimethyl-butyl)-urea]
15.7 nM	COc1cc2c(Oc3ccc(NC(=O)NCCC(C)(C)C)c(Cl)c3)ccnc2cc1OCCCN1CCC(O)CC1 [Compound 268, 1-(2-Chloro-4-{7-[3-(4-hydroxy-piperidin-1-yl)-propoxy]-6-methoxy-quinolin-4-yloxy}-phenyl)-3-(3,3-dimethyl-butyl)-urea]
35.6 nM	COc1cc2c(Oc3ccc(NC(=O)NCCC(C)(C)C)cc3)ccnc2cc1OCCCN(C)CCO [Compound 269, 1-(3,3-Dimethyl-butyl)-3-[4-(7-{3-[(2-hydroxy-ethyl)-methyl-amino]-propoxy}-6-methoxy-quinolin-4-yloxy)-phenyl]-urea]
303 nM	COc1cc2c(Oc3ccc(Nc4ccc(C(C)(C)C)cc4)cc3F)ccnc2cc1OCCCN1CCC(CO)CC1 [Compound 270, [1-(3-{4-[4-(4-Tert-butyl-phenylamino)-2-fluoro-phenoxy]-6-methoxy-quinolin-7-yloxy}-propyl)-piperidin-4-yl]-methanol]
33.2 nM	COCCNCCCOc1cc2nccc(Oc3ccc(NC(=O)NCCC(C)(C)C)cc3)c2cc1OC [Compound 271, 1-(3,3-Dimethyl-butyl)-3-(4-{6-methoxy-7-[3-(2-methoxy-ethylamino)-propoxy]-quinolin-4-yloxy}-phenyl)-urea]
151 nM	COc1cc2c(Oc3ccc(Nc4ccc(C(C)(C)C)cc4)cc3F)ccnc2cc1OCCCN1CCC(CCO)CC1 [Compound 272, 2-[1-(3-{4-[4-(4-Tert-butyl-phenylamino)-2-fluoro-phenoxy]-6-methoxy-quinolin-7-yloxy}-propyl)-piperidin-4-yl]-ethanol]
161 nM	COc1cc2c(Oc3ccc(Nc4ccc(C(C)(C)C)cc4)cc3F)ccnc2cc1OCCCN1CCC(O)CC1 [Compound 273, 1-(3-{4-[4-(4-Tert-butyl-phenylamino)-2-fluoro-phenoxy]-6-methoxy-quinolin-7-yloxy}-propyl)-piperidin-4-ol]
27.8 nM	COc1cc2c(Oc3ccc(NC(=O)NCCC(C)(C)C)c(Cl)c3)ccnc2cc1OCCN1CCC(O)CC1 [Compound 274, 1-(2-Chloro-4-{7-[2-(4-hydroxy-piperidin-1-yl)-ethoxy]-6-methoxy-quinolin-4-yloxy}-phenyl)-3-(3,3-dimethyl-butyl)-urea]
31.6 nM	COc1cc2c(Oc3ccc(NC(=O)NCCC(C)(C)C)c(Cl)c3)ccnc2cc1OCCN1CCC(CO)CC1 [Compound 275, 1-(2-Chloro-4-{7-[2-(4-hydroxymethyl-piperidin-1-yl)-ethoxy]-6-methoxy-quinolin-4-yloxy}-phenyl)-3-(3,3-dimethyl-butyl)-urea]
1130 nM	COc1cc2c(Oc3ccc(Nc4ccc(C(C)(C)C)cc4)c(Cl)c3)ccnc2cc1OCCCN1CCC(O)CC1 [Compound 276, 1-(3-{4-[4-(4-Tert-butyl-phenylamino)-3-chloro-phenoxy]-6-methoxy-quinolin-7-yloxy}-propyl)-piperidin-4-ol]
617 nM	COc1cc2c(Oc3ccc(Nc4ccc(C(C)(C)C)cc4)c(Cl)c3)ccnc2cc1OCCCN1CCC(CO)CC1 [Compound 277, [1-(3-{4-[4-(4-Tert-butyl-phenylamino)-3-chloro-phenoxy]-6-methoxy-quinolin-7-yloxy}-propyl)-piperidin-4-yl]-methanol]
1120 nM	COc1cc2c(Oc3ccc(Nc4ccc(C(C)(C)C)cc4)c(Cl)c3)ccnc2cc1OCCN1CCC(O)CC1 [Compound 278, 1-(2-{4-[4-(4-Tert-butyl-phenylamino)-3-chloro-phenoxy]-6-methoxy-quinolin-7-yloxy}-ethyl)-piperidin-4-ol]
370 nM	COc1cc2c(Oc3ccc(Nc4ccc(C(C)(C)C)cc4)c(Cl)c3)ccnc2cc1OCCN1CCC(CO)CC1 [Compound 279, [1-(2-{4-[4-(4-Tert-butyl-phenylamino)-3-chloro-phenoxy]-6-methoxy-quinolin-7-yloxy}-ethyl)-piperidin-4-yl]-methanol]
278 nM	COc1cc2c(Oc3ccc(Nc4ccc(C(C)(C)C)cc4)cc3)ccnc2cc1OCCN1CCC(OC)CC1 [Compound 280, (4-Tert-butyl-phenyl)-(4-{6-methoxy-7-[2-(4-methoxy-piperidin-1-yl)-ethoxy]-quinolin-4-yloxy}-phenyl)-amine]
244 nM	COCC1CCN(CCOc2cc3nccc(Oc4ccc(Nc5ccc(C(C)(C)C)cc5)cc4)c3cc2OC)CC1 [Compound 281, (4-Tert-butyl-phenyl)-(4-{6-methoxy-7-[2-(4-methoxymethyl-piperidin-1-yl)-ethoxy]-quinolin-4-yloxy}-phenyl)-amine]
